This is an account of results in patent US8710065B2, “Tricyclic inhibitors of kinases” (AbbVie Inc., priority 2011, dated 2014).

Structures are written as SMILES.

T1 sequence (P30291 whole entry): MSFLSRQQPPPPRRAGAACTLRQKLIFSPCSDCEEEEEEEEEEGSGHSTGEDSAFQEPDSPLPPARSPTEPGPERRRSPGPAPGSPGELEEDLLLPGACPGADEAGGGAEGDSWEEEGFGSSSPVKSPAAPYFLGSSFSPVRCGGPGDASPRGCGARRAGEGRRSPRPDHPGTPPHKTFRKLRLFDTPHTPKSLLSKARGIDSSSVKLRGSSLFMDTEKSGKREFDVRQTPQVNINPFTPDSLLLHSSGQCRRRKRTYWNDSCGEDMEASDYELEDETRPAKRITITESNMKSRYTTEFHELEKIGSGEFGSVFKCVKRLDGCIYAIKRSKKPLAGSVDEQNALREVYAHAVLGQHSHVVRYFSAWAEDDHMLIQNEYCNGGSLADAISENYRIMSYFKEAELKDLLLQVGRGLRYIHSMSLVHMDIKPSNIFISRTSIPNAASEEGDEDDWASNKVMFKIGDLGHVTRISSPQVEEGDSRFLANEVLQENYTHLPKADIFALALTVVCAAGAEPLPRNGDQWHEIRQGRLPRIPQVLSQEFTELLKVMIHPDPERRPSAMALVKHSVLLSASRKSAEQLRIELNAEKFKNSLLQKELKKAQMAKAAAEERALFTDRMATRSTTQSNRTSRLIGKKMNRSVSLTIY

This assay addresses T1, GST-tagged-Wee1 kinase (Homo sapiens, UniProt P30291).
T1 construct: purchased Carnabio (Carna Biosciences) 05-177
The assay is described as follows: Wee1 time-resolved fluorescence equilibrium binding assay (displacement of Oregon Green-labeled ATP-competitive kinase probe). The note with it: read-out: Wee-1 inhibition (Ki). A digest of the protocol:
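Time-resolved fluorescence equilibrium binding with GST-Wee1, measuring displacement of a rapidly reversible Oregon Green-labelled ATP-competitive probe by competitive inhibitors; values reported as Ki.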
Consider `CC1SC(c2ccc(Nc3ncc4c(=O)n(-c5ccccc5Cl)c5nccn5c4n3)cc2)NC1=O` (stereo not shown) [Example 221, 6-(2-chlorophenyl)-2-{[4-(5-methyl-4-oxo-1,3-thiazolidin-2-yl)phenyl]amino}imidazo[1,2-a]pyrimido[5,4-e]pyrimidin-5(6H)-one], for which the Ki (as a rule, a measure of affinity in units of concentration, obtained from inhibition or displacement) was 10 to 100 nM.

On to `O=c1c2cnc(Nc3ccc(-c4cn5ccsc5n4)cc3)nc2n2ccnc2n1-c1ccccc1Cl` [Example 222, 6-(2-chlorophenyl)-2-{[4-(imidazo[2,1-b][1,3]thiazol-6-yl)phenyl]amino}imidazo[1,2-a]pyrimido[5,4-e]pyrimidin-5(6H)-one], for which the Ki fell in the range of 10 to 100 nM. `O=c1[nH][nH]c2c(-c3ccc(Nc4ncc5c(=O)n(-c6ccccc6Cl)c6nccn6c5n4)cc3)cccc12` [Example 223, 6-(2-chlorophenyl)-2-{[4-(3-oxo-2,3-dihydro-1H-indazol-7-yl)phenyl]amino}imidazo[1,2-a]pyrimido[5,4-e]pyrimidin-5(6H)-one]: the inhibitory constant (Ki) is under 10 nM. With `O=c1c2cnc(Nc3ccc4c(c3)CN(CC(F)F)CC43CC3)nc2n2ccnc2n1-c1c(F)cccc1Cl` [Example 224, 6-(2-chloro-6-fluorophenyl)-2-{[2′-(2,2-difluoroethyl)-2′,3′-dihydro-1′H-spiro[cyclopropane-1,4′-isoquinolin]-7′-yl]amino}imidazo[1,2-a]pyrimido[5,4-e]pyrimidin-5(6H)-one], the Ki was under 10 nM. For `O=c1c2cnc(Nc3ccc4c(c3)CN(CCF)CC43CC3)nc2n2ccnc2n1-c1c(F)cccc1Cl` [Example 225, 6-(2-chloro-6-fluorophenyl)-2-{[2′-(2-fluoroethyl)-2′,3′-dihydro-1′H-spiro[cyclopropane-1,4′-isoquinolin]-7′-yl]amino}imidazo[1,2-a]pyrimido[5,4-e]pyrimidin-5(6H)-one] the value was under 10 nM; for `CCN(CC)C1Cc2ccc(Nc3ncc4c(=O)n(-c5c(F)cccc5Cl)c5nccn5c4n3)cc2C1` (stereo not shown) [Example 226, 6-(2-chloro-6-fluorophenyl)-2-{[2-(diethylamino)-2,3-dihydro-1H-inden-5-yl]amino}imidazo[1,2-a]pyrimido[5,4-e]pyrimidin-5(6H)-one], under 10 nM; for `O=c1c2cnc(Nc3ccc4c(c3)CC(NC3CC3)C4)nc2n2ccnc2n1-c1c(F)cccc1Cl` (stereo not shown) [Example 227, 6-(2-chloro-6-fluorophenyl)-2-{[2-(cyclopropylamino)-2,3-dihydro-1H-inden-5-yl]amino}imidazo[1,2-a]pyrimido[5,4-e]pyrimidin-5(6H)-one], under 10 nM.

Regarding `O=c1c2cnc(Nc3ccc4c(c3)CNCC43CC3)nc2n2ccnc2n1-c1c(F)cccc1Cl` [Example 228, 6-(2-chloro-6-fluorophenyl)-2-(2′,3′-dihydro-1′H-spiro[cyclopropane-1,4′-isoquinolin]-7′-ylamino)imidazo[1,2-a]pyrimido[5,4-e]pyrimidin-5(6H)-one], the Ki is under 10 nM. `O=c1c2cnc(Nc3ccc(N4CCC(N5CCCCC5)CC4)cc3)nc2n2ccnc2n1-c1ccccc1Cl` [Example 229, 2-{[4-(1,4′-bipiperidin-1′-yl)phenyl]amino}-6-(2-chlorophenyl)imidazo[1,2-a]pyrimido[5,4-e]pyrimidin-5(6H)-one]: the Ki is under 10 nM. For the molecule `CN(C)[C@@H]1CCN(c2ccc(Nc3ncc4c(=O)n(-c5ccccc5Cl)c5nccn5c4n3)cc2)C1` [Example 230, 6-(2-chlorophenyl)-2-({4-[(3R)-3-(dimethylamino)pyrrolidin-1-yl]phenyl}amino)imidazo[1,2-a]pyrimido[5,4-e]pyrimidin-5(6H)-one], the inhibitory constant (Ki) is under 10 nM.

In the case of `O=c1c2cnc(Nc3ccc(N4CCCC(C(F)(F)F)C4)cc3)nc2n2ccnc2n1-c1ccccc1Cl` (stereo not shown) [Example 231, 6-(2-chlorophenyl)-2-({4-[3-(trifluoromethyl)piperidin-1-yl]phenyl}amino)imidazo[1,2-a]pyrimido[5,4-e]pyrimidin-5(6H)-one], the inhibition constant Ki lay in the range of 10 to 100 nM. For `N#CCCN1CCN(c2ccc(Nc3ncc4c(=O)n(-c5ccccc5Cl)c5nccn5c4n3)cc2)CC1` [Example 232, 3-[4-(4-{[6-(2-chlorophenyl)-5-oxo-5,6-dihydroimidazo[1,2-a]pyrimido[5,4-e]pyrimidin-2-yl]amino}phenyl)piperazin-1-yl]propanenitrile] the value was 10 to 100 nM; for `N#CCCN(c1ccc(Nc2ncc3c(=O)n(-c4ccccc4Cl)c4nccn4c3n2)cc1)C1CC1` [Example 233, 3-[(4-{[6-(2-chlorophenyl)-5-oxo-5,6-dihydroimidazo[1,2-a]pyrimido[5,4-e]pyrimidin-2-yl]amino}phenyl)(cyclopropyl)amino]propanenitrile], 10 to 100 nM; for `CN(C)CCNc1ccc(Nc2ncc3c(=O)n(-c4ccccc4Cl)c4nccn4c3n2)cc1` [Example 234, 6-(2-chlorophenyl)-2-[(4-{[2-(dimethylamino)ethyl]amino}phenyl)amino]imidazo[1,2-a]pyrimido[5,4-e]pyrimidin-5(6H)-one], under 10 nM. In the case of `NC(=O)C1CCN(c2ccc(Nc3ncc4c(=O)n(-c5ccccc5Cl)c5nccn5c4n3)cc2)CC1` [Example 235, 1-(4-{[6-(2-chlorophenyl)-5-oxo-5,6-dihydroimidazo[1,2-a]pyrimido[5,4-e]pyrimidin-2-yl]amino}phenyl)piperidine-4-carboxamide], the Ki was under 10 nM. For `O=c1c2cnc(Nc3ccc(N4CCC(N5CCOCC5)CC4)cc3)nc2n2ccnc2n1-c1ccccc1Cl` [Example 236, 6-(2-chlorophenyl)-2-({4-[4-(morpholin-4-yl)piperidin-1-yl]phenyl}amino)imidazo[1,2-a]pyrimido[5,4-e]pyrimidin-5(6H)-one] the value was under 10 nM. In the case of `CN(C)C1CCN(C(=O)c2ccc(Nc3ncc4c(=O)n(-c5c(Cl)cccc5Cl)c5nccn5c4n3)cc2)CC1` [Example 237, 6-(2,6-dichlorophenyl)-2-[(4-{[4-(dimethylamino)piperidin-1-yl]carbonyl}phenyl)amino]imidazo[1,2-a]pyrimido[5,4-e]pyrimidin-5(6H)-one], the inhibitory constant (Ki) was under 10 nM.

In the case of `CN(C)C1CCC(NC(=O)c2ccc(Nc3ncc4c(=O)n(-c5c(Cl)cccc5Cl)c5nccn5c4n3)cc2)CC1` (stereo not shown) [Example 238, 4-{[6-(2,6-dichlorophenyl)-5-oxo-5,6-dihydroimidazo[1,2-a]pyrimido[5,4-e]pyrimidin-2-yl]amino}-N-[4-(dimethylamino)cyclohexyl]benzamide], the Ki is under 10 nM. In the case of `CN1CCC(NC(=O)c2ccc(Nc3ncc4c(=O)n(-c5c(Cl)cccc5Cl)c5nccn5c4n3)cc2)CC1` [Example 239, 4-{[6-(2,6-dichlorophenyl)-5-oxo-5,6-dihydroimidazo[1,2-a]pyrimido[5,4-e]pyrimidin-2-yl]amino}-N-(1-methylpiperidin-4-yl)benzamide], the inhibitory constant (Ki) is under 10 nM. For the molecule `O=c1c2cnc(Nc3ccc(N4CCC(N5CCCC5)CC4)cc3)nc2n2ccnc2n1-c1c(Cl)cccc1Cl` [Example 240, 6-(2,6-dichlorophenyl)-2-({4-[4-(pyrrolidin-1-yl)piperidin-1-yl]phenyl}amino)imidazo[1,2-a]pyrimido[5,4-e]pyrimidin-5(6H)-one], the Ki was under 10 nM. Under `CC(=O)N1Cc2cc(Nc3ncc4c(=O)n(-c5c(F)cccc5Cl)c5nccn5c4n3)ccc2C2(CC2)C1` [Example 241, 2-[(2′-acetyl-2′,3′-dihydro-1′H-spiro[cyclopropane-1,4′-isoquinolin]-7′-yl)amino]-6-(2-chloro-6-fluorophenyl)imidazo[1,2-a]pyrimido[5,4-e]pyrimidin-5(6H)-one] stands under 10 nM.

As for `O=C(C1CC1)N1Cc2cc(Nc3ncc4c(=O)n(-c5c(F)cccc5Cl)c5nccn5c4n3)ccc2C2(CC2)C1` [Example 242, 6-(2-chloro-6-fluorophenyl)-2-{[2′-(cyclopropylcarbonyl)-2′,3′-dihydro-1′H-spiro[cyclopropane-1,4′-isoquinolin]-7′-yl]amino}imidazo[1,2-a]pyrimido[5,4-e]pyrimidin-5(6H)-one], the Ki is under 10 nM. For `CS(=O)(=O)N1Cc2cc(Nc3ncc4c(=O)n(-c5c(F)cccc5Cl)c5nccn5c4n3)ccc2C2(CC2)C1` [Example 243, 6-(2-chloro-6-fluorophenyl)-2-{[2′-(methylsulfonyl)-2′,3′-dihydro-1′H-spiro[cyclopropane-1,4′-isoquinolin]-7′-yl]amino}imidazo[1,2-a]pyrimido[5,4-e]pyrimidin-5(6H)-one] the value was under 10 nM; for `O=c1c2cnc(Nc3ccc(N4CCN5CCC[C@@H]5C4)cc3)nc2n2ccnc2n1-c1c(F)cccc1Cl` [Example 244, 6-(2-chloro-6-fluorophenyl)-2-({4-[(8aR)-hexahydropyrrolo[1,2-a]pyrazin-2(1H)-yl]phenyl}amino)imidazo[1,2-a]pyrimido[5,4-e]pyrimidin-5(6H)-one], under 10 nM. For the molecule `O=c1c2cnc(Nc3ccc(N[C@H]4CN5CCC4CC5)cc3)nc2n2ccnc2n1-c1ccccc1Cl` [Example 245, 2-({4-[(3R)-1-azabicyclo[2.2.2]oct-3-ylamino]phenyl}amino)-6-(2-chlorophenyl)imidazo[1,2-a]pyrimido[5,4-e]pyrimidin-5(6H)-one], the Ki is under 10 nM. For the molecule `O=c1c2cnc(Nc3ccc(NCCN4CCCC4)cc3)nc2n2ccnc2n1-c1ccccc1Cl` [Example 246, 6-(2-chlorophenyl)-2-[(4-{[2-(pyrrolidin-1-yl)ethyl]amino}phenyl)amino]imidazo[1,2-a]pyrimido[5,4-e]pyrimidin-5(6H)-one], the inhibition constant (Ki) was under 10 nM. In the case of `O=c1c2cnc(Nc3ccc(N4CCN(c5ccccn5)CC4)cc3)nc2n2ccnc2n1-c1ccccc1Cl` [Example 247, 6-(2-chlorophenyl)-2-({4-[4-(pyridin-2-yl)piperazin-1-yl]phenyl}amino)imidazo[1,2-a]pyrimido[5,4-e]pyrimidin-5(6H)-one], the Ki was under 10 nM. As to `O=c1c2cnc(Nc3ccc(NCCN4CCOCC4)cc3)nc2n2ccnc2n1-c1ccccc1Cl` [Example 248, 6-(2-chlorophenyl)-2-[(4-{[2-(morpholin-4-yl)ethyl]amino}phenyl)amino]imidazo[1,2-a]pyrimido[5,4-e]pyrimidin-5(6H)-one], the Ki was under 10 nM.
